The values below are quoted from earlier work in US4127522A, “Novel triacontapeptides, intermediates therefor and pharmaceutical compositions and methods employing said triacontapeptides” (priority 1977, dated 1978).

In data set [1] the test system is partially purified brain opiate receptor sites. The settings on record: natural peptide; Bradbury et al.
For data set [2] the following is noted: injected directly into the brain of the rat; Belluzzi et al.

With “H-Tyr-Gly-Gly-Phe-Met-OH [methionine enkephalin]”, the “binding to partially purified brain opiate receptor sites” value in data set [1] was “binds stereo-specifically”. The “activity in bioassays for opiate activity” value with opiate activity is reported as “very active”. The analgesic activity result in data set [2] is reported as “only weak analgesic agent of short duration”.
